How the values were obtained:
Assay type in all cases: physicochemical
[1] = Stability study of cefsulodin sodium stored at 55° C., purity by HPLC (Example 3); settings: for Purity Day 0: Day 0, HPLC peak area; for Purity Day 7: Day 7, HPLC peak area; for Purity Day 14: Day 14, HPLC peak area; for Purity Day 21: Day 21, HPLC peak area; for Purity Day 28: Day 28, HPLC peak area; for Purity Day 35: Day 35, HPLC peak area; for Purity Day 42: Day 42, HPLC peak area; for Purity Day 49: Day 49, HPLC peak area; for Purity Day 56: Day 56, HPLC peak area; for Purity Day 63: Day 63, HPLC peak area; for Purity Day 70: Day 70, HPLC peak area
Protocol: (§1) Three lots of cefsulodin sodium, prepared according to the process described in Example 2, were stored at 55° C. and 40° C. and the purity of the sample determined as a function of time using HPLC. […] The stability of a lyophilized sample of cefsulodin sodium containing about 5-6% water at 55° C. was also determined. The lyophilized sample was prepared by suspending cefsulodin in water, adding sodium hydroxide until the cefsulodin dissolved, and then removing the water by lyophilization. The area of the HPLC peak corresponding to cefsulodin was used to determine purity. The following assay was used to determine purity:
(§2) 1. 25 mM Sodium Acetate pH 4.5 • a. Measure out 2 L of HPLC grade water. • b. Add 4.1 g of sodium acetate. • c. Mix until dissolved. • d. Adjust the pH to 4.5 with HPLC grade acetic acid. • e. Filter the solution through a nylon filter.
(§3) 2. 3% acetonitrile-97% 25 mM sodium acetate pH 4.5 (Mobile Phase A) • a. Measure out 1940 mL of 25 mM sodium acetate into a 2 L flask. • b. Add 60 mL of HPLC grade acetonitrile. • c. Mix well.
(§4) 3. HPLC Grade acetonitrile (Mobile Phase B) • a. Transfer acetonitrile into a 1 L flask. Sample Preparation:
(§5) 1. Weigh out about 10 mg of cefsulodin into a 15 mL conical tube.
(§6) 2. Add […] of mobile phase A and mix to dissolve (1 mg/mL cefsulodin Stock solution).
(§7) 3. Transfer 1 mL of cefsulodin stock solution into another 15 mL conical tube.
(§8) 4. Add 7 mL of mobile phase A to make a 0.125 mg/mL solution of cefsulodin.
(§9) 5. Filter this solution through a nylon syringe filter into an HPLC vial.
(§10) 6. Analyze the sample by HPLC using the conditions described below.
(§11) Solvents: Pump A-Mobile Phase A • Pump B-Mobile Phase B
(§12) Detection wavelength: 254 nm
(§13) Initial Conditions: 100% Pump A-0% Pump B
(§14) The above gradient can be summarized as follows: maintain at 0% B for 0.3 min; at 0.3 min run a gradient to 70% B for 2.5 min; maintain at 70% B for 1 min; at 3.5 min go back to 0% B for 0.5 min; run at 0% B until the 8.00 min mark.

[2] = Stability study of cefsulodin sodium stored at 40° C., purity by HPLC (Example 3); settings: for Purity Day 0: Day 0, HPLC peak area; for Purity Day 7: Day 7, HPLC peak area; for Purity Day 14: Day 14, HPLC peak area; for Purity Day 21: Day 21, HPLC peak area; for Purity Day 28: Day 28, HPLC peak area; for Purity Day 35: Day 35, HPLC peak area; for Purity Day 42: Day 42, HPLC peak area; for Purity Day 49: Day 49, HPLC peak area; for Purity Day 56: Day 56, HPLC peak area; for Purity Day 63: Day 63, HPLC peak area; for Purity Day 70: Day 70, HPLC peak area
Protocol: as §1, §2, §3, §4, §5, §6, §7, §8, §9, §10, §11, §12, §13, §14

[3] = Stability of needle-shaped and spherical-shaped cefsulodin sodium crystals at 55° C. (Example 5); settings: for Purity Day 1 / Purity Day 7 / Purity Day 14 / Purity Day 21: crystal form stored at 55° C.
Protocol: Needle-shaped cefsulodin sodium crystals were obtain according to a process similar to the process described in Example 2.
Spherical-shaped cefsulodin sodium crystals were obtain according to the process described in Example 3.
The stability of each crystal form was measured at 55° C.

[4] = Storage at about room temperature, purity by HPLC
[5] = Solubility in water

SMILES	Purity Day 0 [1]	Purity Day 7 [1]	Purity Day 14 [1]	Purity Day 21 [1]	Purity Day 28 [1]	Purity Day 42 [1]	Purity Day 49 [1]	Purity Day 56 [1]	Purity Day 63 [1]	Purity Day 70 [1]	Purity Day 0 [2]	Purity Day 7 [2]	Purity Day 14 [2]	Purity Day 21 [2]	Purity Day 28 [2]	Purity Day 42 [2]	Purity Day 49 [2]	Purity Day 56 [2]	Purity Day 63 [2]	Purity Day 70 [2]	other results
NC(=O)c1cc[n+](CC2=C(C(=O)[O-])N3C(=O)[C@@H](NC(=O)[C@@H](c4ccccc4)S(=O)(=O)[O-])[C@H]3SC2)cc1.[Na+] [Lot 1, cefsulodin sodium]	99.2%	97.2%	96.0%	94.9%	94.3%	91.8%	90.9%	90.5%	89.8%	89.1%	99.2%	98.2%	98.2%	97.5%	97.2%	96.3%	96.4%	96.0%	96.0%	95.3%	Purity Day 35 [1]: 93.4%; Purity Day 35 [2]: 96.4%
NC(=O)c1cc[n+](CC2=C(C(=O)[O-])N3C(=O)[C@@H](NC(=O)[C@@H](c4ccccc4)S(=O)(=O)[O-])[C@H]3SC2)cc1.[Na+] [Lot 2, cefsulodin sodium]	99.2%	97.1%	96.1%	94.7%	94.4%	91.8%	91.0%	90.1%	89.8%	89.2%	99.2%	98.5%	98.3%	97.7%	97.1%	96.5%	96.4%	96.4%	96.1%	95.6%	Purity Day 35 [1]: 92.9%; Purity Day 35 [2]: 96.8%
NC(=O)c1cc[n+](CC2=C(C(=O)[O-])N3C(=O)[C@@H](NC(=O)[C@@H](c4ccccc4)S(=O)(=O)[O-])[C@H]3SC2)cc1.[Na+] [Lot 3, cefsulodin sodium]	99.3%	96.9%	96.1%	94.8%	93.9%	93.4%	92.6%	92.7%	91.3%	91.3%	99.3%	98.4%	98.5%	98.1%	97.9%	96.2%	97.2%	97.3%	97.0%	97.0%	–
NC(=O)c1cc[n+](CC2=C(C(=O)O)N3C(=O)[C@@H](NC(=O)[C@@H](c4ccccc4)S(=O)(=O)[O-])[C@H]3SC2)cc1 [Lyophilized, cefsulodin sodium]	98.8%	–	–	–	80.4%	–	–	–	–	–	–	–	–	–	–	–	–	–	–	–	–
NC(=O)c1cc[n+](CC2=C(C(=O)[O-])N3C(=O)[C@@H](NC(=O)[C@@H](c4ccccc4)S(=O)(=O)[O-])[C@H]3SC2)cc1.[Na+] [Needle-shaped, cefsulodin sodium]	–	–	–	–	–	–	–	–	–	–	–	–	–	–	–	–	–	–	–	–	stability of crystal forms (comparison) ([3]; 55° C.): more stable than the spherical-shaped crystals; Purity Day 1 [3]: 99.2; Purity Day 7 [3]: 98.1; Purity Day 14 [3]: 96.8; Purity Day 21 [3]: 95.7
NC(=O)c1cc[n+](CC2=C(C(=O)[O-])N3C(=O)[C@@H](NC(=O)[C@@H](c4ccccc4)S(=O)(=O)[O-])[C@H]3SC2)cc1.[Na+] [Spherical-shaped, cefsulodin sodium]	–	–	–	–	–	–	–	–	–	–	–	–	–	–	–	–	–	–	–	–	Purity Day 1 [3]: 98.5; Purity Day 7 [3]: 86.3; Purity Day 14 [3]: 83.7; Purity Day 21 [3]: 83.1
NC(=O)c1cc[n+](CC2=C(C(=O)O)N3C(=O)[C@@H](NC(=O)[C@@H](c4ccccc4)S(=O)(=O)[O-])[C@H]3SC2)cc1 [cefsulodin sodium]	–	–	–	–	–	–	–	–	–	–	–	–	–	–	–	–	–	–	–	–	purity after storage for 29 days ([4]; about room temperature, 29 days): 80.4%; purity after storage for 56 days ([4]; about room temperature, 56 days): 76.7%; purity determined by HPLC before storage ([4]; initial, before storage at about room temperature): about 95%
NC(=O)c1cc[n+](CC2=C(C(=O)O)N3C(=O)[C@@H](NC(=O)[C@@H](c4ccccc4)S(=O)(=O)[O-])[C@H]3SC2)cc1 [cefsulodin]	–	–	–	–	–	–	–	–	–	–	–	–	–	–	–	–	–	–	–	–	solubility in water [5]: insoluble in water
NC(=O)c1cc[n+](CC2=C(C(=O)[O-])N3C(=O)[C@@H](NC(=O)[C@@H](c4ccccc4)S(=O)(=O)[O-])[C@H]3SC2)cc1.[Na+] [monosodium cefsulodin, monosodium salt of cefsulodin]	–	–	–	–	–	–	–	–	–	–	–	–	–	–	–	–	–	–	–	–	solubility in water [5]: more soluble in water that cefsulodin

Source: patent US8198434B2, “Process for preparing cefsulodin sodium” (IDEXX Laboratories, Inc., priority 2008, dated 2012)
